# Results from patent publication US20200024278A1, “COMPOSITION COMPRISING ANTIBIOTIC COMPOUND AND AN HETEROCYCLIC COMPOUND AND THEIR USE IN PREVENTING OR TREATING BACTERIAL INFECTIONS” (MUTABILIS, priority 2016, published 2020).
# Read-outs that look alike come from different tables or passages of the source.
# How the values were obtained:
# ECO 190317 = assay: MIC, broth microdilution (CLSI), substance alone or ATB combined with compound at 4 or 8 μg/mL; format: cell-based, E. coli; conditions: Escherichia coli, ECO 190317
# How it was run: (§1)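 CLSI broth microdilution in cation-adjusted Mueller-Hinton broth, 5·10^5 CFU/mL log-phase inoculum, 16-20 h at 35 °C in ambient air. Fosfomycin assays supplemented with 25 μg/ml glucose-6-phosphate.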
# ECO UFR39 = assay: as above; format: cell-based, E. coli; conditions: Escherichia coli, ECO UFR39
# How it was run: as §1
# KPN 6299 = assay: as above; format: cell-based, K. pneumoniae; conditions: Klebsiella pneumoniae, antibiotic alone, read-out: MIC ATB alone
# How it was run: as §1
# KPN BAA-1898 = assay: as above; format: cell-based, K. pneumoniae; conditions: Klebsiella pneumoniae, BAA1898, KPN BAA-1898
# How it was run: as §1
# KPN UFR42 = assay: as above; format: cell-based, K. pneumoniae; conditions: Klebsiella pneumoniae; antibiotic alone; KPN UFR42; read-out: MIC ATB alone
# How it was run: as §1
# KPN UFR68 = assay: as above; format: cell-based, K. pneumoniae; conditions: Klebsiella pneumoniae, substance alone
# How it was run: as §1
# ECL P99 = assay: as above; format: cell-based, E. cloacae; conditions: Enterobacter cloacae, ECL P99
# How it was run: as §1
# PAE 105250 = assay: as above; format: cell-based, P. aeruginosa; conditions: Pseudomonas aeruginosa; antibiotic alone; PAE 105250; read-out: MIC ATB alone
# How it was run: as §1
# PAE UFR48 [1] = assay: as above; format: cell-based, P. aeruginosa; conditions: Pseudomonas aeruginosa, antibiotic alone; PAE UFR48; read-out: MIC ATB alone
# How it was run: as §1
# PAE UFR90 [2] = assay: as above; format: cell-based, P. aeruginosa; conditions: PAE UFR90
# How it was run: as §1
# SAU 29213 = assay: as above; format: cell-based, S. aureus; conditions: Staphylococcus aureus
# How it was run: as §1
# SPN 49619 = assay: as above; format: cell-based, S. pneumoniae; conditions: Streptococcus pneumoniae, SPN 49619
# How it was run: as §1
# PAE 27853 = format: cell-based, P. aeruginosa; conditions: tntbc: Too numerous to be counted
# Procedure: (§2) Method 4: Determination of the Spontaneous Mutation Frequency of the Compounds Alone and Combined with Antibiotics.
# (§3) Bacterial isolates (Table 3) were grown overnight at 35° C. on TSA plates (Becton-Dickinson and Company) in ambient air. After 24 h of incubation, isolated bacterial colonies were added to cation-adjusted Mueller-Hinton broth (ca-MHB; Becton-Dickinson and Company) and cultured for approximately 6 h at 35° C. The pre-culture was stopped once bacteria have reached an OD600 nm of 0.5 for 200 μL. The bacterial suspension was centrifuged at 4000 rpm for 20 min. The supernatant was then discarded and the bacterial pellet was dissolved in ca-MHB to obtain 10^9 to 10^10 CFU/mL. Assays including Fosfomycin were supplemented with 25 μg/ml of Glucose-6-phosphate. 100 μL of the adjusted bacterial suspension were spread on agar plates containing different concentrations of the compounds of the present invention alone or combined with an antibacterial (Table 1). The plates were incubated for 24-48 h at 35° C. in ambient air. CFU were numerated on each agar plate containing compound. The number of resistant colonies obtained was divided by the starting inoculum to give the frequency of spontaneous resistance for a given incubation time (24 and 48 h).
# PAE UFR48 [3] = format: cell-based, P. aeruginosa; conditions: tntbc: Too numerous to be counted
# Procedure: as §2, §3
# PAE UFR90 [4] = format: cell-based, P. aeruginosa; conditions: tntbc: Too numerous to be counted
# Procedure: as §2, §3
# [5] = antibiotic alone, read-out: MIC ATB alone
compound,measurement,setting,value
"C[C@@H]1O[C@@H]1P(=O)(O)O [FOS, Fosfomycin, reference compound]",MIC,ECO 190317; [5],0.5 µg/mL
same,MIC,"ECO 190317; substance alone, read-out: MIC",0.5 µg/mL
same,MIC,ECO UFR39; [5],4 µg/mL
same,MIC,"ECO UFR39; substance alone, read-out: MIC",4 µg/mL
same,MIC,KPN 6299,> 128 µg/mL
same,MIC,KPN BAA-1898; [5],64 µg/mL
same,MIC,"KPN BAA-1898; substance alone, read-out: MIC",64 µg/mL
same,MIC,KPN UFR42,128 µg/mL
same,MIC,KPN UFR68,32 µg/mL
same,MIC,ECL P99; [5],> 1020 µg/mL
same,MIC,"ECL P99; substance alone, read-out: MIC",> 1020 µg/mL
same,MIC,PAE 105250,256 µg/mL
same,MIC,PAE UFR48 [1],16 µg/mL
same,MIC,"PAE UFR90 [2]; Pseudomonas aeruginosa, antibiotic alone, read-out: MIC ATB alone",8 µg/mL
same,MIC,"PAE UFR90 [2]; Pseudomonas aeruginosa, substance alone, read-out: MIC",16 µg/mL
same,MIC,PAE UFR90 [2]; substance alone,8 µg/mL
same,MIC,"SAU 29213; antibiotic alone, SAU 29213, read-out: MIC ATB alone",2 µg/mL
same,MIC,"SAU 29213; substance alone, SAU 29213 (MSSA 29213), read-out: MIC",2 µg/mL
same,MIC,SPN 49619; [5],32 µg/mL
same,MIC,"SPN 49619; substance alone, read-out: MIC",32 µg/mL
same,Frequency of spontaneous resistance,PAE 27853; single agent at 4.MIC,1.2E−06
same,Frequency of spontaneous resistance,PAE 27853; single agent at 8.MIC,1.4E−06
same,Frequency of spontaneous resistance,PAE UFR48 [3]; single agent at 4.MIC,1.1E−06
same,Frequency of spontaneous resistance,PAE UFR48 [3]; single agent at 8.MIC,1.1E−06
same,Frequency of spontaneous resistance,PAE UFR90 [4]; single agent at 4.MIC,3.0E−07
same,Frequency of spontaneous resistance,PAE UFR90 [4]; single agent at 8.MIC,2.0E−07
